From PMC10779433, “Bidirectional Allosteric Coupling between PIP2 Binding and the Pore of the Oncochannel TRPV6” (International Journal of Molecular Sciences, 2024)
Residues, ends and D or L forms follow the SMILES beside them. *: point of attachment. Palmitoyl = CCCCCCCCCCCCCCCC(=O)*

Experiments:
TRPV6 WT = target: T1, TRPV6 WT (Homo sapiens, UniProt Q9H1D0); test: NFAT localization, TRPV6 WT; assay type: cell-based; settings: HEK293 cells
T1 construct: expressed in transfected cells; host or cells: HEK293 cells, transient transfection
T1 sequence (Q9H1D0 41-765 limits assumed): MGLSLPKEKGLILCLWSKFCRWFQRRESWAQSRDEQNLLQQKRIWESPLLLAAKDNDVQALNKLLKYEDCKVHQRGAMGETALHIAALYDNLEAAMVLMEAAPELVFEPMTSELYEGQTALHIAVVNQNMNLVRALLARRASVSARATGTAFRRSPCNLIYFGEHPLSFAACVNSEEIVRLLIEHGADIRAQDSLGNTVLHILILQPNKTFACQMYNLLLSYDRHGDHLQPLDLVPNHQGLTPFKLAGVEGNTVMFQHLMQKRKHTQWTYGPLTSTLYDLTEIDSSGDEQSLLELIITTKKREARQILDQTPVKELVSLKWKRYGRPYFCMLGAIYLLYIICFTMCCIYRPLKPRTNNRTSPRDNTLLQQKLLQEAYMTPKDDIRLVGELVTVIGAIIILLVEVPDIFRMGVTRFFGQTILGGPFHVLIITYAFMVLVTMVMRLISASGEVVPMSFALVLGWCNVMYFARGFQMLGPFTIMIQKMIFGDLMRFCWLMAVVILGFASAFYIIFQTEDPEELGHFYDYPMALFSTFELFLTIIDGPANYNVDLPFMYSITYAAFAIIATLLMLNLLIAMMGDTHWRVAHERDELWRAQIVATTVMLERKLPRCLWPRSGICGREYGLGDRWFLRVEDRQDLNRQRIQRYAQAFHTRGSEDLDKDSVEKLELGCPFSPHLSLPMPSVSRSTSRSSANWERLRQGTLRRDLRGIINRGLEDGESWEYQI
Description: (§1) N-terminally TagRFP-labeled human TRPV6 (725 aa) was kindly provided by R. Bhardwaj and M. Hediger (University of Bern, Bern, Switzerland). This variant is translated from the first ATG codon and thus deviates from the non-ATG-initiated protein which is expressed in vivo (accession number NM_018646.6) by lacking 40 amino acids of the very N-terminus. For N-terminal labeling with EYFP, TRPV6 was cloned into pEYFP-C1 (Clontech) via EcoRI and SacII restriction sites. Mutations (F468A, R470A, F472A, K484A/Q, G488R, R492A/Q, I575A, G579A, D580A/K, H582A, W583A/F, H587A, R589A, W593A, R632A/Q, R470A, W583F) were introduced using the QuickChange XL site-directed mutagenesis kit (Stratagene, San Diego, CA, USA) and Pfu DNA Polymerase (Promega, Madison, WI, USA). pTagRFP-hTRPV6 I575A was kindly provided by the lab of M. Hediger (University of Bern, Bern, Switzerland). Forward and reverse primers for site-directed mutagenesis were synthesized by Eurofins genomics GmbH (Wien, Vienna, Austria). Intactness of the constructs in terms of sequence was confirmed by sequencing (Microsynth Austria GmbH, Wien, Vienna, Austria; Eurofins genomics GmbH, Wien, Vienna, Austria). In the present experiments, Tag-RFP-labeled constructs were implemented for NFAT screens, patch clamp measurements, and Fura-2-based Ca^2+ imaging, while for R.Geco1.2 measurements, TRPV6 WT and mutants were used which carried an EYFP label at the N-terminus (pEYFP-C1 vector) to avoid spectral overlap. R.Geco1.2 was purchased from Addgene (No. 45494), and mCherry-CRY2-5ptase OCRL was established in the lab of P. De Camilli and was derived from Addgene (No. 66836), as was CIBN-CAAX (No. 79574). Plasmids encoding for mCerulean3-CRY2-5′ ptase OCRL, YFP-CIBN-CAAX, and the mCherry-tagged PH domain were provided by K. Groschner (Medical University of Graz, Graz, Austria). […] CFP-NFAT (NFATc1, equivalent to NFAT2) was kindly provided by R. Kehlenbach (Scripps Research Institute, La Jolla, CA, USA).
After incubation, cover slips were carefully rinsed with phenol red-free DMEM supplemented with the compound and dosage corresponding to the previous incubation, which was then also present during imaging. In any case, an untreated control was included as well, using phenol red-free DMEM as imaging solution. Subcellular NFAT localization of TRPV6 expressing cells was again monitored on an Axiovert 135 inverted microscope (Zeiss, Oberkochen, Germany), as described in more detail before. Excitation of CFP relied on the 425 nm LED in combination with a CHROMA 69,008× ET ECFP/EYFP/mCherry 25mm Dia Mounted filter. Images were analyzed using Matlab2018a, differentiating between three cell populations based on the ratio of CFP emission intensity originating from the nucleus and the cytosol, similar to Schober et al. (2019).

TRPV6 G488R = test: Whole-cell patch clamp, TRPV6 G488R; assay type: cell-based, human; settings: HEK293 cells; for inhibition of current (in words): Figure 2D
Description: as §1
Cultivation of human embryonic kidney (HEK) 293 cells occurred in DMEM supplemented with 10% fetal calf serum, penicillin (100 U/mL), and streptomycin (100 µg/mL) at 37 °C under humidified atmosphere containing 5% CO2. Transient transfection was performed 20–24 h prior to experiments using the TransFectin lipid reagent (Bio-Rad, Hercules, CA, USA), in accordance with the instructions of the supplier. For Ca^2+ imaging using R.Geco1.2, 2 μg of the indicator-encoding plasmid were additionally transfected, while 1 μg plasmid DNA was routinely used per construct in all other cases. […]
Electrophysiological experiments were performed at 20 °C to 24 °C in whole-cell recording configurations of the patch clamp technique. […] The liquid junction potential was determined as 12 mV; the voltages were not adjusted. […]

[1] = 5 μM cis-22a, three or four hours

Structure (SMILES) | NFAT distribution pattern (TRPV6 WT; 0.1 μM cis-22a, 2 h, 37 °C, vs DMSO about 90% nuclear, about 10% homogeneous) | nuclear NFAT localization (% of cells) (TRPV6 WT; 5 μM cis-22a, 2 h, vs DMSO control 90% nuclear) [%] | NFAT cytosolic localization (TRPV6 WT; [1]) | NFAT nuclear localization (TRPV6 WT; [1]) | NFAT homogeneous vs cytosolic localization (TRPV6 WT; 10 μM cis-22a, 2 h) | NFAT cytosolic localization, dose dependence (TRPV6 WT; 0.1, 1, 5, 10 μM cis-22a, 2 h) | NFAT nuclear localization, dose dependence (TRPV6 WT; 1, 5, or 10 μM cis-22a, 2 h, 37 °C) | inhibition of current (in words) (TRPV6 G488R; 0.1 µM cis-22a, 10 mM Ca2+) | inhibition of current (in words) (TRPV6 G488R; 10 µM cis-22a (hundredfold higher dose), after 0.1 µM) | NFAT localization patterns (TRPV6 WT; 10 μM pal-PIP2 peptide, 15–20 min or 2 h) | inhibition of current (TRPV6 G488R; 10 μM pal-PIP2 peptide, relative to 1 mM La3+, n=4, Figure S1E) | apparent inhibition of current (TRPV6 G488R; 20 μM pal-PIP2 peptide, 10 mM Ca2+, relative to 1 mM La3+, Figure 2B)
Cc1cccc(C2CCC(N3CCN(c4cccnc4)CC3)CC2)c1.O=C(O)C(F)(F)F (stereo not drawn) [cis-22a] | essentially preserved | 22 | roughly 40% | only a small proportion of cells maintained nuclear localization | the likelihood for homogeneous and cytosolic localization equalized | only observed at the two highest concentrations tested | continuously decreased the proportion of cells showing nuclear NFAT localization but favored a homogeneous distribution | not inhibited | essentially unaffected | – | – | –
CCCCCCCCCCCCCCCC(=O)N[C@@H](Cc1c[nH]cn1)C(=O)N[C@@H](CCCNC(=N)N)C(=O)N[C@@H](CCC(N)=O)C(=O)N[C@@H](CCCCN)C(=O)N[C@@H](Cc1c[nH]cn1)C(=O)N[C@@H](Cc1ccccc1)C(=O)N[C@@H](CCC(=O)O)C(=O)N[C@@H](CCCCN)C(=O)N[C@@H](CCCNC(=N)N)C(=O)N[C@@H](CCCNC(=N)N)C(N)=O [pal-PIP2 peptide] (Palmitoyl-HRQKHFEKRR-NH2) | – | – | – | – | – | – | – | – | – | unable to change localization patterns | ~ 4% | about 24%
